Experimental data: patent US6897316B2, “Substituted 2-phenyl-4-quinolone-3-carboxylic acid compounds and their use as antitumor agents” (China Medical University, priority 2003, dated 2005)
Values after ≈ are worked out from the molar mass of the structure shown.

What was measured:
[1] = test system: lung cancer cell line (A-549); experiment: Preliminary cytotoxicity screening against lung cancer cell line A-549 (SRB assay); type: cell-based, human; details: Homo sapiens, A549; A-549; 50% reduction in absorbance at 562 nm relative to untreated cells, SRB assay; Table 1 (esters VII, acids IX); read-out: ED50 (cytotoxicity against A-549)
Protocol: (§1) Compounds were assayed for in vitro cytotoxicity in a panel of human tumor cell lines at the School of Pharmacy, University of North Carolina at Chapel Hill, according to procedures described previously [Lee, K. H., Lin, Y. M., Wu, T. S., Zhang, D. C., Yamagishi, T., Hayashi, T., Hall, I. H., Chang, J. J., Wu, R. Y., Yang, T. H. The cytotoxic principles of Prunella vulgaris, Psychotria serpens, and Hyptis capitata: Ursolic acid and related derivatives. Planta Med. 1988, 54, 308-11; Boyd, M. R. Status of the National Cancer Institute preclinical antitumor drug discovery screen: implications for selection of new agents for clinical trial. Devita, V. T., Jr. Hellman, S., Rosenberg, S. A., Eds, J. B. Cancer: Principles and Practice of Oncology Update, 1989, 3: pp1-12, Lippincoft: Philadephia; Monks, A., Scudiero, D., Skehan, P., Shoemaker, R., Paull, K., Vistica, D., Hose, C., Langley, J., Cronise, P., Vaigro-Wolff, A., Gray-Goodrich, M., Campbell, H., Mayo, J., Boyd, M. Feasibility of a high-flux anticancer drug screen using a diverse panel of cultured human tumor cell lines. J. Natl. Cancer Inst. 1991, 83, 757-66.] The cell lines included human ovarian cancer (1A9), ileocecal carcinoma (HCT-8), lung carcinoma (A-549), glioblastoma (U-87-MG), bone (HOS), epidermoid carcinoma of the naynx (KB), P-gp-expressing epidermoid carcinoma of the nasopharynx (KB-VIN), and melanoma (SKMEL-2) cell line. The cytotoxic effects of each compound were obtained as EC50 values, which represent the molar drug concentrations required to cause 50% inhibition.
Preliminary screening of antitumor activity was based on the cytotoxicity tested in human long cancer (A-549) cell lines. […] Among 3-carboxylic acid derivatives (IX), the cytotoxicity was not remarkable when the m-position of 2-phenyl group was substituted by OCH3 group (IX-3, 7, 11). ED50 values were greater than 20 μg/mL. […] The antitumor activity was not good, if there was no substitution on the m-position of 2-phenyl group ([…]).

[2] = test system: Renal cancer (CAKI) cell line; experiment: Activity against HTCL replication, CAKI; type: cell-based, human; details: mean ED50
Protocol: as §1, with “The cell lines included human ovarian cancer (1A9), ileocecal carcinoma (HCT-8), lung carcinoma (A-549), glioblastoma (U-87-MG), bone (HOS), epidermoid carcinoma of the naynx (KB), P-gp-expressing epidermoid carcinoma of the nasopharynx (KB-VIN), and melanoma (SKMEL-2) cell line. The cytotoxic effects of each compound were obtained as EC50 values, which represent the molar drug concentrations required to cause 50% inhibition.” left out

## COc1ccc2[nH]c(-c3cccc(F)c3)c(C(=O)O)c(=O)c2c1 [IX-8, 3′-Fluoro-6-methoxy-2-phenyl-4-quinolone-3-carboxylic acid]
[1]
  IC50: 0.19 µg/mL (≈ 0.606 µM)
[2]
  ED50 CAKI: 10.0 µg/mL (≈ 31.9 µM)
other
  melting point: 268 °C (dec.)
